Measurements from US20230278972A1, “SUBSTITUTED HALOALKYL SULFONANILIDE HERBICIDES” (FMC Corporation, priority 2020, published 2023).

Key:
Assay type in all cases: in vivo
[1] = system: galium (catchweed bedstraw, Galium aparine); assay: Test A postemergence, galium; conditions: Postemergence, 0 to 100 scale (0 no effect, 100 complete control); for Plant response rating, Galium: 125 g ai/ha; for Galium plant response rating: 500 g ai/ha, visual injury vs untreated controls after approx. 10 days
Procedure, shortened: (§1)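 Directed soil spray at planting gave the preemergence treatment, while foliar application to one- to two-leaf seedlings (2–10 cm) gave the postemergence one; pots held a loam and sand mixture and chemicals were carried in a non-phytotoxic solvent with surfactant.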

[2] = system: Foxtail, Giant (giant foxtail, Setaria faberi); assay: Test A preemergence, Foxtail, Giant; conditions: Preemergence; for Foxtail, Giant plant response rating: 125 g ai/ha, visual injury on 0 to 100 scale (0 no effect, 100 complete control), approximately 10 days; for Plant response rating, Foxtail, Giant: 500 g ai/ha, 0 to 100 scale (0 no effect, 100 complete control)
Procedure, shortened: (§2)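 Formulated with a surfactant in a non-phytotoxic solvent, compounds are applied to loam–sand pots, either to bare soil immediately after seeding (preemergence) or to seedlings of 2 to 10 cm bearing one to two leaves (postemergence).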

[3] = system: blackgrass (Alopecurus myosuroides); assay: Test A postemergence, blackgrass; conditions: Postemergence, 0 to 100 scale (0 no effect, 100 complete control); for Plant response rating, Blackgrass: 125 g ai/ha; for Blackgrass plant response rating: 500 g ai/ha, visual injury vs untreated controls after approx. 10 days
Procedure, shortened: as §2

[4] = system: ragweed (common ragweed, Ambrosia artemisiifolia); assay: Test A preemergence, ragweed; conditions: Preemergence; for Ragweed plant response rating: 125 g ai/ha, visual injury on 0 to 100 scale (0 no effect, 100 complete control), approximately 10 days; for Plant response rating, Ragweed: 500 g ai/ha, 0 to 100 scale (0 no effect, 100 complete control)
Procedure, shortened: as §2

[5] = system: ragweed (common ragweed, Ambrosia artemisiifolia); assay: Test A postemergence, ragweed; conditions: Postemergence, 0 to 100 scale (0 no effect, 100 complete control); for Plant response rating, Ragweed: 125 g ai/ha; for Ragweed plant response rating: 500 g ai/ha, visual injury vs untreated controls after approx. 10 days
Procedure, shortened: as §2

[6] = system: kochia (Bassia scoparia); assay: Test A preemergence, kochia; conditions: Preemergence; for Kochia plant response rating: 125 g ai/ha, visual injury on 0 to 100 scale (0 no effect, 100 complete control), approximately 10 days; for Plant response rating, Kochia: 500 g ai/ha, 0 to 100 scale (0 no effect, 100 complete control)
Procedure, shortened: as §2

[7] = system: corn (Zea mays); assay: Test A postemergence, corn; conditions: Postemergence, 0 to 100 scale (0 no effect, 100 complete control); for Plant response rating, Corn: 125 g ai/ha; for Corn plant response rating: 500 g ai/ha, visual injury vs untreated controls after approx. 10 days
Procedure, shortened: as §2

[8] = system: barnyardgrass (Echinochloa crus-galli); assay: Test A preemergence, barnyardgrass; conditions: Preemergence; for Barnyardgrass plant response rating: 125 g ai/ha, visual injury on 0 to 100 scale (0 no effect, 100 complete control), approximately 10 days; for Plant response rating, Barnyardgrass: 500 g ai/ha, 0 to 100 scale (0 no effect, 100 complete control)
Procedure, shortened: as §2

[9] = system: Ryegrass, Italian (Italian ryegrass, Lolium multiflorum); assay: Test A preemergence, Ryegrass, Italian; conditions: Preemergence; for Ryegrass, Italian plant response rating: 125 g ai/ha, visual injury on 0 to 100 scale (0 no effect, 100 complete control), approximately 10 days; for Plant response rating, Ryegrass, Italian: 500 g ai/ha, 0 to 100 scale (0 no effect, 100 complete control)
Procedure, shortened: as §2

[10] = system: kochia (Bassia scoparia); assay: Test A postemergence, kochia; conditions: Postemergence, 0 to 100 scale (0 no effect, 100 complete control); for Plant response rating, Kochia: 125 g ai/ha; for Kochia plant response rating: 500 g ai/ha, visual injury vs untreated controls after approx. 10 days
Procedure, shortened: as §2

[11] = system: Foxtail, Giant (giant foxtail, Setaria faberi); assay: Test A postemergence, Foxtail, Giant; conditions: Postemergence, 0 to 100 scale (0 no effect, 100 complete control); for Plant response rating, Foxtail, Giant: 125 g ai/ha; for Foxtail, Giant plant response rating: 500 g ai/ha, visual injury vs untreated controls after approx. 10 days
Procedure, shortened: as §2

[12] = system: wheat (Triticum aestivum); assay: Test A postemergence, wheat; conditions: Postemergence, 0 to 100 scale (0 no effect, 100 complete control); for Plant response rating, Wheat: 125 g ai/ha; for Wheat plant response rating: 500 g ai/ha, visual injury vs untreated controls after approx. 10 days
Procedure, shortened: as §1

[13] = system: pigweed (Amaranthus retroflexus); assay: Test A postemergence, pigweed; conditions: Postemergence, 0 to 100 scale (0 no effect, 100 complete control); for Plant response rating, Pigweed: 125 g ai/ha; for Pigweed plant response rating: 500 g ai/ha, visual injury vs untreated controls after approx. 10 days
Procedure, shortened: as §2

[14] = system: pigweed (Amaranthus retroflexus); assay: Test A preemergence, pigweed; conditions: for Pigweed plant response rating: 125 g ai/ha, visual injury on 0 to 100 scale (0 no effect, 100 complete control), approximately 10 days; for Plant response rating, Pigweed: 500 g ai/ha, 0 to 100 scale (0 no effect, 100 complete control)
Procedure, shortened: as §1

[15] = system: barnyardgrass (Echinochloa crus-galli); assay: Test A postemergence, barnyardgrass; conditions: Postemergence, 0 to 100 scale (0 no effect, 100 complete control); for Plant response rating, Barnyardgrass: 125 g ai/ha; for Barnyardgrass plant response rating: 500 g ai/ha, visual injury vs untreated controls after approx. 10 days
Procedure, shortened: as §1

[16] = system: Ryegrass, Italian (Italian ryegrass, Lolium multiflorum); assay: Test A postemergence, Ryegrass, Italian; conditions: Postemergence, 0 to 100 scale (0 no effect, 100 complete control); for Plant response rating, Ryegrass, Italian: 125 g ai/ha; for Ryegrass, Italian plant response rating: 500 g ai/ha, visual injury vs untreated controls after approx. 10 days
Procedure, shortened: as §2

SMILES: Cc1cc(Cl)c(C2=NOC(C)(C)C2)cc1NS(=O)(=O)C(F)(F)F [Compound 183]
- Plant response rating, Galium [1]: 70
- Galium plant response rating [1]: 90
- Foxtail, Giant plant response rating [2]: 50
- Plant response rating, Foxtail, Giant [2]: 70
- Plant response rating, Blackgrass [3]: 10
- Blackgrass plant response rating [3]: 10
- Ragweed plant response rating [4]: 20
- Plant response rating, Ragweed [4]: 90
- Plant response rating, Ragweed [5]: 60
- Ragweed plant response rating [5]: 80
- Kochia plant response rating [6]: 20
- Plant response rating, Kochia [6]: 60
- Plant response rating, Corn [7]: 0
- Corn plant response rating [7]: 30
- Barnyardgrass plant response rating [8]: 90
- Plant response rating, Barnyardgrass [8]: 100
- Ryegrass, Italian plant response rating [9]: 70
- Plant response rating, Ryegrass, Italian [9]: 100
- Plant response rating, Kochia [10]: 10
- Kochia plant response rating [10]: 50
- Plant response rating, Foxtail, Giant [11]: 0
- Foxtail, Giant plant response rating [11]: 10
- Plant response rating, Wheat [12]: 0
- Wheat plant response rating [12]: 0
- Plant response rating, Pigweed [13]: 30
- Pigweed plant response rating [13]: 30
- Pigweed plant response rating [14]: 70
- Plant response rating, Pigweed [14]: 80
- Plant response rating, Barnyardgrass [15]: 20
- Barnyardgrass plant response rating [15]: 70
- Plant response rating, Ryegrass, Italian [16]: 0
- Ryegrass, Italian plant response rating [16]: 0

SMILES: Cc1cc(Cl)c(C2=NOC(C)(C)C2)cc1N(S(=O)(=O)C(F)(F)F)S(=O)(=O)C(F)(F)F [Compound 184]
- Plant response rating, Galium [1]: 80
- Galium plant response rating [1]: 90
- Foxtail, Giant plant response rating [2]: 30
- Plant response rating, Foxtail, Giant [2]: 90
- Plant response rating, Blackgrass [3]: 0
- Blackgrass plant response rating [3]: 20
- Ragweed plant response rating [4]: 80
- Plant response rating, Ragweed [4]: 90
- Plant response rating, Ragweed [5]: 40
- Ragweed plant response rating [5]: 70
- Kochia plant response rating [6]: 0
- Plant response rating, Kochia [6]: 0
- Plant response rating, Corn [7]: 0
- Corn plant response rating [7]: 0
- Barnyardgrass plant response rating [8]: 70
- Plant response rating, Barnyardgrass [8]: 100
- Ryegrass, Italian plant response rating [9]: 30
- Plant response rating, Ryegrass, Italian [9]: 50
- Plant response rating, Kochia [10]: 0
- Kochia plant response rating [10]: 30
- Plant response rating, Foxtail, Giant [11]: 0
- Foxtail, Giant plant response rating [11]: 0
- Plant response rating, Wheat [12]: 0
- Wheat plant response rating [12]: 0
- Plant response rating, Pigweed [13]: 20
- Pigweed plant response rating [13]: 40
- Pigweed plant response rating [14]: 70
- Plant response rating, Pigweed [14]: 100
- Plant response rating, Barnyardgrass [15]: 20
- Barnyardgrass plant response rating [15]: 50
- Plant response rating, Ryegrass, Italian [16]: 0
- Ryegrass, Italian plant response rating [16]: 0

SMILES: Cc1cc(Cl)c(C2=NOC3(CCCC3)C2)cc1NS(=O)(=O)C(F)(F)F [Compound 185]
- Plant response rating, Galium [1]: 30
- Galium plant response rating [1]: 70
- Foxtail, Giant plant response rating [2]: 50
- Plant response rating, Foxtail, Giant [2]: 100
- Plant response rating, Blackgrass [3]: 0
- Blackgrass plant response rating [3]: 10
- Ragweed plant response rating [4]: 20
- Plant response rating, Ragweed [4]: 70
- Plant response rating, Ragweed [5]: 0
- Ragweed plant response rating [5]: 40
- Kochia plant response rating [6]: 0
- Plant response rating, Kochia [6]: 0
- Plant response rating, Corn [7]: 0
- Corn plant response rating [7]: 0
- Barnyardgrass plant response rating [8]: 70
- Plant response rating, Barnyardgrass [8]: 100
- Ryegrass, Italian plant response rating [9]: 50
- Plant response rating, Ryegrass, Italian [9]: 100
- Plant response rating, Kochia [10]: 0
- Kochia plant response rating [10]: 10
- Plant response rating, Foxtail, Giant [11]: 0
- Foxtail, Giant plant response rating [11]: 0
- Plant response rating, Wheat [12]: 0
- Wheat plant response rating [12]: 0
- Plant response rating, Pigweed [13]: 0
- Pigweed plant response rating [13]: 40
- Pigweed plant response rating [14]: 50
- Plant response rating, Pigweed [14]: 80
- Plant response rating, Barnyardgrass [15]: 0
- Barnyardgrass plant response rating [15]: 20
- Plant response rating, Ryegrass, Italian [16]: 0
- Ryegrass, Italian plant response rating [16]: 0

SMILES: Cc1cc(Cl)c(C2=NOC3(CCCC3)C2)cc1N(S(=O)(=O)C(F)(F)F)S(=O)(=O)C(F)(F)F [Compound 186]
- Plant response rating, Galium [1]: 60
- Galium plant response rating [1]: 80
- Foxtail, Giant plant response rating [2]: 60
- Plant response rating, Foxtail, Giant [2]: 100
- Plant response rating, Blackgrass [3]: 0
- Blackgrass plant response rating [3]: 20
- Ragweed plant response rating [4]: 20
- Plant response rating, Ragweed [4]: 50
- Plant response rating, Ragweed [5]: 40
- Ragweed plant response rating [5]: 60
- Kochia plant response rating [6]: 20
- Plant response rating, Kochia [6]: 70
- Plant response rating, Corn [7]: 0
- Corn plant response rating [7]: 30
- Barnyardgrass plant response rating [8]: 60
- Plant response rating, Barnyardgrass [8]: 100
- Ryegrass, Italian plant response rating [9]: 60
- Plant response rating, Ryegrass, Italian [9]: 100
- Plant response rating, Kochia [10]: 10
- Kochia plant response rating [10]: 40
- Plant response rating, Foxtail, Giant [11]: 0
- Foxtail, Giant plant response rating [11]: 20
- Plant response rating, Wheat [12]: 0
- Wheat plant response rating [12]: 30
- Plant response rating, Pigweed [13]: 0
- Pigweed plant response rating [13]: 50
- Pigweed plant response rating [14]: 20
- Plant response rating, Pigweed [14]: 80
- Plant response rating, Barnyardgrass [15]: 10
- Barnyardgrass plant response rating [15]: 20
- Plant response rating, Ryegrass, Italian [16]: 0
- Ryegrass, Italian plant response rating [16]: 20

SMILES: C#CCN(CC#C)C(=O)c1cc(NS(=O)(=O)C(F)(F)F)c(C)cc1C [Compound 187]
- Plant response rating, Galium [1]: 80
- Galium plant response rating [1]: 80
- Foxtail, Giant plant response rating [2]: 100
- Plant response rating, Foxtail, Giant [2]: 100
- Plant response rating, Blackgrass [3]: 20
- Blackgrass plant response rating [3]: 20
- Ragweed plant response rating [4]: 70
- Plant response rating, Ragweed [4]: 90
- Plant response rating, Ragweed [5]: 80
- Ragweed plant response rating [5]: 90
- Kochia plant response rating [6]: 80
- Plant response rating, Kochia [6]: 80
- Plant response rating, Corn [7]: 80
- Corn plant response rating [7]: 90
- Barnyardgrass plant response rating [8]: 100
- Plant response rating, Barnyardgrass [8]: 100
- Ryegrass, Italian plant response rating [9]: 100
- Plant response rating, Ryegrass, Italian [9]: 100
- Plant response rating, Kochia [10]: 50
- Kochia plant response rating [10]: 70
- Plant response rating, Foxtail, Giant [11]: 80
- Foxtail, Giant plant response rating [11]: 90
- Plant response rating, Wheat [12]: 70
- Wheat plant response rating [12]: 70
- Plant response rating, Pigweed [13]: 30
- Pigweed plant response rating [13]: 60
- Pigweed plant response rating [14]: 70
- Plant response rating, Pigweed [14]: 80
- Plant response rating, Barnyardgrass [15]: 90
- Barnyardgrass plant response rating [15]: 90
- Plant response rating, Ryegrass, Italian [16]: 90
- Ryegrass, Italian plant response rating [16]: 80
